Data set [1] can be described thus: Liver microsome stability. The data set is classed as in vitro ADME. The note with it: dog, liver microsomes, pH 7.4. Background: Liver microsomes are vesicles of endoplasmic reticulum, rich in cytochrome P450 enzymes.
The test system of data set [2] is protein and lipid kinases (KINOMEScan panel). The experiment in a line: KINOMEScan panel selectivity. The data set is classed as binding. The note with it: 10 μM.
In data set [3] the test system is CEREP BioPrint (P22-p) panel. The experiment in a line: CEREP BioPrint. The settings on record: 10 μM. The data set is classed as binding.
Data set [4] deals with PI3Kβ (Homo sapiens, UniProt P42338). Kind of data set: DiscoverX KdELECT. The settings on record: Inhibitor binding constant Kd PI3Kβ, second PI3K column of Table S2.
Sequence of PI3Kβ (P42338 whole entry): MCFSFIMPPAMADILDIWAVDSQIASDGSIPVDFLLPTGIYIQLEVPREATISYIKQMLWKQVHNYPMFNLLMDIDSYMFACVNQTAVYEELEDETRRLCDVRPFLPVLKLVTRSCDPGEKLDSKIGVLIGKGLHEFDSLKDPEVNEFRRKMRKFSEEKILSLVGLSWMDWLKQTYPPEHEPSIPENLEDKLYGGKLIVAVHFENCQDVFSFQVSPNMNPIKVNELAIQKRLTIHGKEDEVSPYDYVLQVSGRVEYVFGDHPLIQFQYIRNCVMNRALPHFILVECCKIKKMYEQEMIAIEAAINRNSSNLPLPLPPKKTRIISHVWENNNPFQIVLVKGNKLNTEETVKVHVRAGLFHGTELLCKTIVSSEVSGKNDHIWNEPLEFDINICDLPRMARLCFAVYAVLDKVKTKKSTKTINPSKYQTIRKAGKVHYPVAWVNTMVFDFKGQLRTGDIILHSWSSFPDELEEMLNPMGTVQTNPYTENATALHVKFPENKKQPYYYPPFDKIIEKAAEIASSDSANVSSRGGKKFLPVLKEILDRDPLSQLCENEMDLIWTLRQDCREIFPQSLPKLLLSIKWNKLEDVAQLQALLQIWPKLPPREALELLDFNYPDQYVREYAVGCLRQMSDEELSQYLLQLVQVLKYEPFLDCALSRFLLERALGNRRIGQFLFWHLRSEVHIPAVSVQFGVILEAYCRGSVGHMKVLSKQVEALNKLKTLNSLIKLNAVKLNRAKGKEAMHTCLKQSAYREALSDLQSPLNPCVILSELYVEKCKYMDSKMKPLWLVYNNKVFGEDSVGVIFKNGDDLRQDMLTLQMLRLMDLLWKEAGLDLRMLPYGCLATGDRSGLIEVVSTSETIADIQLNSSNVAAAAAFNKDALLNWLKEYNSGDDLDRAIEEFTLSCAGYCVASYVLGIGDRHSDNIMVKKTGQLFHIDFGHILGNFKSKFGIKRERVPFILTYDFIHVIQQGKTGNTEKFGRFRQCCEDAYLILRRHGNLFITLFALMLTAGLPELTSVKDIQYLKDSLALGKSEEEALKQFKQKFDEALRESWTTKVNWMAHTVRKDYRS
The nature of data set [5]: Liver microsome stability. It counts as in vitro ADME. The note with it: rat, liver microsomes, pH 7.4.
The test system of data set [6] is 44 tumor cell lines. Kind of data set: NTRC Oncolines proliferation, panel mean. It counts as cell-based. The note with it: 4-4 cell.
For data set [7], the target named is T1, PI3Kδ (Homo sapiens, UniProt O00329).
T1 sequence (O00329 1-1044): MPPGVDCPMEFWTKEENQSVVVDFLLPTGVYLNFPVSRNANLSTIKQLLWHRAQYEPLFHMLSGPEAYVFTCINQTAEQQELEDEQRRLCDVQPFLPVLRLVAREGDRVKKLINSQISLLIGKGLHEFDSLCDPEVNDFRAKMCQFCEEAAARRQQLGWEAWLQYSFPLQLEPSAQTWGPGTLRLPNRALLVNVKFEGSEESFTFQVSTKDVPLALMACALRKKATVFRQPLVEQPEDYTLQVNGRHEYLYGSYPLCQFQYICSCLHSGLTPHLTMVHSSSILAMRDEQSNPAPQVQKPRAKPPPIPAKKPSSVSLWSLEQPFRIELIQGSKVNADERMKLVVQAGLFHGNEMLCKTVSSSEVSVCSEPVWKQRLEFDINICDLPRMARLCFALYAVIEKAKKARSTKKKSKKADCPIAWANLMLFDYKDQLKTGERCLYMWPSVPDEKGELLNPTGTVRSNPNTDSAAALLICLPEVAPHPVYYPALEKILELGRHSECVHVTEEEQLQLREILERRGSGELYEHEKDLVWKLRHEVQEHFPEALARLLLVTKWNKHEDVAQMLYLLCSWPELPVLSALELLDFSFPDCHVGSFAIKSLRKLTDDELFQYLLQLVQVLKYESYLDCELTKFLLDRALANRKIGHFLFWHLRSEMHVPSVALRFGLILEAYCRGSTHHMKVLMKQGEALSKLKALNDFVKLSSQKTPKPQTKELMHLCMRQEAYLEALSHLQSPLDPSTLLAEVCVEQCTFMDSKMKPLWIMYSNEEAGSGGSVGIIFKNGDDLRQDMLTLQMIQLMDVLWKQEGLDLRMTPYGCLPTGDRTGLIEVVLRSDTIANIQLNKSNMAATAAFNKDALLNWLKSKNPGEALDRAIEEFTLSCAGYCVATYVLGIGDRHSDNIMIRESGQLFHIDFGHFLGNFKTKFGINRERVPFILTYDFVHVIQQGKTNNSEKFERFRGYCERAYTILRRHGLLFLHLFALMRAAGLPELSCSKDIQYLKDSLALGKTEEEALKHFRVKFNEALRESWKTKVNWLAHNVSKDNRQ
The experiment in a line: DiscoverX KdELECT. The note with it: Inhibitor binding constant Kd PI3Kδ, third PI3K column of Table S2.

The target of data set [8] is PI3Kα (Homo sapiens, UniProt P42336). Kind of data set: DiscoverX KdELECT. The settings on record: Inhibitor binding constant Kd PI3Kα, first PI3K column of Table S2.
Sequence of PI3Kα (P42336 whole entry): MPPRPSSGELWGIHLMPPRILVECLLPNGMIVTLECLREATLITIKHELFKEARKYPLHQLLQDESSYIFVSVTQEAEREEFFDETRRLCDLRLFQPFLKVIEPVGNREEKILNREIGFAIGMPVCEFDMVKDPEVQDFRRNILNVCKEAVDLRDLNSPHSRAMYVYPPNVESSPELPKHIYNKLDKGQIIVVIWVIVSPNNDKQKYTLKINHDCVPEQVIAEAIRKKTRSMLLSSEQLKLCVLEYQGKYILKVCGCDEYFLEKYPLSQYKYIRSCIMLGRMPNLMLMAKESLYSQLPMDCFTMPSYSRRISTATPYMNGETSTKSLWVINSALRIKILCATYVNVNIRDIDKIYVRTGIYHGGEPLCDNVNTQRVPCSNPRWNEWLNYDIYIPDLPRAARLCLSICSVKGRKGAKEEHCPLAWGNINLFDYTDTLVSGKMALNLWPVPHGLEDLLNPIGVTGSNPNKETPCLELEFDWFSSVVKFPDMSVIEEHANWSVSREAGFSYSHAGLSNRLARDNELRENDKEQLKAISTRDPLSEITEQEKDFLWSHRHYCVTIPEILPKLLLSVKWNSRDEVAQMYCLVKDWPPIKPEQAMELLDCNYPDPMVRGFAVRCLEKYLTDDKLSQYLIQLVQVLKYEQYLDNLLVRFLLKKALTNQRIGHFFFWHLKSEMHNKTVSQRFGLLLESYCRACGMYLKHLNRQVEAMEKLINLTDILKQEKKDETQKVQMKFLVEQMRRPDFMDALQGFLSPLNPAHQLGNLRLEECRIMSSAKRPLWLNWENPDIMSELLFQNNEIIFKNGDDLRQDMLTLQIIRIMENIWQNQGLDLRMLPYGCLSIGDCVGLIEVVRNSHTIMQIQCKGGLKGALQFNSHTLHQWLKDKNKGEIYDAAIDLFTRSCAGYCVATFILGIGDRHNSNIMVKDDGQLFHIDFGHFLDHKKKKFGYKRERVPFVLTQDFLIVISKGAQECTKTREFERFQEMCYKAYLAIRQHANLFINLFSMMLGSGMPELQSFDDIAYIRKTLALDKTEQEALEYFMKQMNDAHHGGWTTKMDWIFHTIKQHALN
The nature of data set [9]: Liver microsome stability. The data set is classed as in vitro ADME. The note with it: human, liver microsomes, pH 7.4.
The test system of data set [10] is 66 cancer cell lines. The experiment in a line: NTRC Oncolines proliferation, panel mean. It counts as cell-based. The note with it: read-out: mean half-maximal growth inhibition (GI50).
In data set [11] the target is PI3Kγ (Homo sapiens, UniProt P48736). Kind of data set: DiscoverX KdELECT. The note with it: Inhibitor binding constant Kd PI3Kγ, fourth PI3K column of Table S2.
Sequence of PI3Kγ (P48736 whole entry): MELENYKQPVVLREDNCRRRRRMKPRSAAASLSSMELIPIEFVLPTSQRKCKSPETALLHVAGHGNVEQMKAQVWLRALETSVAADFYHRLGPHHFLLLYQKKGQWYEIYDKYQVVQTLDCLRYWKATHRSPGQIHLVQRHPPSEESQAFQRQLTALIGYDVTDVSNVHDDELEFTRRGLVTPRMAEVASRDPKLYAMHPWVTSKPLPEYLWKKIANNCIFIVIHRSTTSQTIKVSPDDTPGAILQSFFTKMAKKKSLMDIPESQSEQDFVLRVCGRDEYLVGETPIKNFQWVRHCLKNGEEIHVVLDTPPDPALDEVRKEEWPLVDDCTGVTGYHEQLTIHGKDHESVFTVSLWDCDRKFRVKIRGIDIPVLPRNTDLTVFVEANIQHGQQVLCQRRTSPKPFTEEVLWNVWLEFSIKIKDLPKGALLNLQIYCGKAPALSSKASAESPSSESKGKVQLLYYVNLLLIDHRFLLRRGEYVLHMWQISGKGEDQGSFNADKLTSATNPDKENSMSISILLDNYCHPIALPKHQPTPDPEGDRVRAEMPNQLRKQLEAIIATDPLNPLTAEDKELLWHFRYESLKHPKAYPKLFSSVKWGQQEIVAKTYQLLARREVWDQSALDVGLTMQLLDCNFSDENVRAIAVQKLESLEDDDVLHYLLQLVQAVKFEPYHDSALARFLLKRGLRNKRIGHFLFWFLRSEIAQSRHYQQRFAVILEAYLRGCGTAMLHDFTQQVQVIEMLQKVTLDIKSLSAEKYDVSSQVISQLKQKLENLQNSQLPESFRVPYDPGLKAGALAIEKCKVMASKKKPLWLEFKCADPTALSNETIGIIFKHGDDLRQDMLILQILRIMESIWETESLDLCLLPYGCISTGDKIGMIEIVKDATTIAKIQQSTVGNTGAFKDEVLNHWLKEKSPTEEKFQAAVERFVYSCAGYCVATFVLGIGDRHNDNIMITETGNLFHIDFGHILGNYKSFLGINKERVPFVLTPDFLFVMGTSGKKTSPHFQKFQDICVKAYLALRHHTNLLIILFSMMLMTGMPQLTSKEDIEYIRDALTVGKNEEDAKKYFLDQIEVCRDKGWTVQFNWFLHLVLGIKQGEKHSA
Data set [12] in a line: Pharmacokinetics in mice. The settings on record: plasma, 10 mg/kg p.o.
Data set [13] concerns OVCAR-3 xenograft. Kind of data set: OVCAR-3 xenograft model. It counts as in vivo, BALB/c nude mice. The note with it: 6.3 mg/kg p.o. QD.
Data set [14] deals with 44 tumor cell lines. The settings on record: matched 44 cell line panel; cited from earlier work.
For data set [15], the system named is OVCAR-3 xenograft. The note with it: 50 mg/kg p.o. QD for 28 days, day 45; cited from earlier work.

Results on three molecules are retold here after publication PMC6792169 (ACS Medicinal Chemistry Letters, 2019).

Read-outs that look alike come from different tables or passages of the source.

`Nc1ncc(-c2nc(N3CCOCC3)nc(N3CCOCC3)n2)c(C(F)F)n1` [PQR514 (4)]: the share remaining at 0.5 h, 1 µM in data set [1] is 92.7 ± 0.2%; in data set [5] it was 109 ± 10.7%; in data set [9] it was 87.2 ± 3.5%. Further, in data set [2], the “interference with protein kinase activities” value was “negligible interference with protein kinase activities”. In data set [3], the off-target interactions result is reported as “With the exception of human PDE3A (phosphodiesterase 3A), no or very weak interactions were detected”. The equilibrium dissociation constant (Kd) in [4], in data set [7], in data set [8] and in data set [11] was less than 0.007 µM throughout. Also, the results for the GI50 in data set [6] and in data set [10] were 0.24 µM and 0.25 µM, respectively. This molecule showed a Cl in data set [12] of 15.6 mL/min/kg. For the same molecule, the “body weight / tolerability” value in [13] was “no significant body weight loss was observed”. In data set [13] (day 45), the “tumor weight analysis vs vehicle” value was “significantly inhibited tumor growth”.

Consider `C[C@H]1COCCN1c1nc(-c2cnc(N)cc2C(F)F)nc(N2CCOCC2)n1` [PQR530 (16), (S)-4-(Difluoromethyl)-5-(4-(3-methylmorpholino)-6-morpholino-1,3,5-triazin-2-yl)p yridin-2-amine], for which the 50% growth inhibitory concentration (GI50) in data set [14] is roughly 0.4 µM.

Turning to `Nc1cc(C(F)(F)F)c(-c2nc(N3CCOCC3)nc(N3CCOCC3)n2)cn1` [PQR309 (1), 5-(4,6-Dimorpholino-1,3,5-triazin-2-yl)-4-(trifluoromethyl)pyridin-2-amine], the GI50 in data set [14] is roughly 1 µM. In data set [15], the mean tumor size is on record as 571 mm^3.

One may read the Kd as the free concentration of one partner at which half of the binding sites on the other are occupied at equilibrium, for simple one-to-one binding. Higher therefore signals weaker binding. The term GI50 denotes the concentration giving 50% growth inhibition.
